Test results from patent publication US20220193384A1, “CUTANEOUS DEVICE FOR STORING AND RELEASING MOLECULES, AND CORRESPONDING METHOD” (priority 2019, published 2022).
≈ marks a conversion by molar mass, not a printed value. Where two headings read alike, the source gives them in different places.

What was measured:
[1] = drug passed through and remained inside the excised skin; cited from earlier work
[2] = C57BL/6, mouse, 100 μg mL^−1, pH 7.4
[3] = tested on: Gram-negative E. coli K12; assay: Minimum inhibitory concentration (MIC); type: cell-based; settings: Escherichia coli
[4] = Skin permeation, static Franz diffusion cell, passive and electrothermally activated patch; settings: stock solution 100 μg mL^−1 for loading, mouse skin
[5] = tested on: blood glucose level; assay: In vivo blood glucose level after insulin injection or insulin-loaded electrothermal patch; settings: IP or subcutaneous injection of insulin (0.032 UI, 1.12 μg), C57BL/6 mice
[6] = electrothermal activation 1 V, 10 min

| Compound | Active, amount of drug permeated [2] [µg/mL] | Flux passive [2] [μg cm^−2 h^−1] | Passive, amount of drug permeated [2] [µg/mL] | Flux active [2] [μg cm^−2 h^−1] | also measured |
| --- | --- | --- | --- | --- | --- |
| O=c1[nH]cc(F)c(=O)[nH]1 [5-fluorouracil] | 23.1 | 0 | 0 | – | Flux of 5-fluorouracil reported by Xie et al. [1]: 1.64 μg cm^−2 h^−1 |
| CC1(C)S[C@@H]2[C@H](NC(=O)[C@H](N)c3ccccc3)C(=O)N2[C@H]1C(=O)O [ampicillin] | – | – | – | – | MIC [3]: 10 ± 0.5 µg/mL (≈ 28.6 µM) |
| Cn1c(=O)c2c(ncn2C)n(C)c1=O [caffeine] | 58 | 7.18 | 28 | 15.09 | – |
| CO/N=C(\C(=O)N[C@@H]1C(=O)N2C(C(=O)[O-])=C(C[N+]3(C)CCCC3)CS[C@H]12)c1csc(N)n1 [cefepime] | – | – | – | – | Active, amount of drug permeated [4, 6]: 18.3 µg/mL; Flux active [4, 6]: 4.67 μg cm^−2 h^−1; Flux passive ([4]; passive, no activation): 0 μg cm^−2 h^−1; Passive, amount of drug permeated ([4]; passive, no activation): 0 µg/mL; MIC [3]: 10 ± 0.5 µg/mL (≈ 20.8 µM) |
| COc1cccc2c1C(=O)c1c(O)c3c(c(O)c1C2=O)C[C@@](O)(C(=O)CO)C[C@@H]3O[C@H]1C[C@H](N)[C@H](O)[C@H](C)O1 [doxorubicin] | 62 | 0 | 0 | 6.61 | – |
| CN(C)C(=N)N=C(N)N [metformin] | – | – | – | 4.68 | – |
| insulin | – | – | – | – | Time to therapeutic effect (change in blood glucose level) [5]: about 15 min |
